Values joined by “and” are separate entries in the source; they are usually repeats but may differ in a detail not shown here. Equal values may be shown once. Inconclusive results and toxic doses are left out.
System: CD2F1 mice, L1210 leukemia ip, survival T/C
Assay: NCI In Vivo Anticancer Drug Screen. Data for tumor model L1210 Leukemia (intraperitoneal) in CD2F1 (CDF1) mice
Conditions: higher = longer survival
How it was run: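 Tumor-bearing mice (transplanted tumor) were split into treated and vehicle control groups, and the measured endpoint of each treated group was divided by that of its vehicle controls.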

[1] = endpoint: mean survival time, dose: 100.0 mg/kg/injection, schedule: Q04DX002 (ip), vehicle: saline with Tween-80
[2] = endpoint: mean survival time, dose: 200.0 mg/kg/injection, schedule: Q04DX002 (ip), vehicle: saline with Tween-80
[3] = endpoint: mean survival time, dose: 400.0 mg/kg/injection, schedule: Q04DX002 (ip), vehicle: saline with Tween-80
[4] = endpoint: mean survival time, dose: 25.0 mg/kg/injection, schedule: Q01DX009 (ip), vehicle: Klucel (hydroxypropylcellulose) (HPC)
[5] = endpoint: mean survival time, dose: 50.0 mg/kg/injection, schedule: Q01DX009 (ip), vehicle: Klucel (hydroxypropylcellulose) (HPC)
[6] = endpoint: mean survival time, dose: 25.0 mg/kg/injection, schedule: Q04DX003 (ip), vehicle: saline
[7] = endpoint: mean survival time, dose: 100.0 mg/kg/injection, schedule: Q01DX009 (ip), vehicle: saline with Tween-80
[8] = endpoint: mean survival time, dose: 200.0 mg/kg/injection, schedule: Q01DX009 (ip), vehicle: saline with Tween-80
[9] = endpoint: mean survival time, dose: 400.0 mg/kg/injection, schedule: Q01DX009 (ip), vehicle: saline with Tween-80
[10] = endpoint: mean survival time, dose: 100.0 mg/kg/injection, schedule: Q04DX003 (ip), vehicle: saline with Tween-80
[11] = endpoint: mean survival time, dose: 100.0 mg/kg/injection, schedule: Q04DX003 (ip), vehicle: saline
[12] = endpoint: mean survival time, dose: 200.0 mg/kg/injection, schedule: Q04DX003 (ip), vehicle: saline
[13] = endpoint: mean survival time, dose: 400.0 mg/kg/injection, schedule: Q04DX003 (ip), vehicle: saline
[14] = endpoint: mean survival time, dose: 200.0 mg/kg/injection, schedule: Q04DX003 (ip), vehicle: saline with Tween-80

O=C(c1ccccc1)c1ccc2cc(O)ccc2c1
T/C (endpoint: mean survival time, dose: 100.0 mg/kg/injection, schedule: Q01DX001 (ip), vehicle: saline with Tween-80): 102 % of control | T/C [1]: 94 % of control | T/C (endpoint: mean survival time, dose: 200.0 mg/kg/injection, schedule: Q01DX001 (ip), vehicle: saline with Tween-80): 92 % of control | T/C [2]: 90 % of control | T/C (endpoint: mean survival time, dose: 400.0 mg/kg/injection, schedule: Q01DX001 (ip), vehicle: saline with Tween-80): 96 % of control | T/C [3]: 86 % of control

CS(C)(=O)=C/C(=C\C(=O)c1ccccc1)c1ccccc1
T/C (endpoint: mean survival time, dose: 25.0 mg/kg/injection, schedule: Q01DX009 (ip), vehicle: saline): 94 % of control | T/C (endpoint: mean survival time, dose: 50.0 mg/kg/injection, schedule: Q01DX009 (ip), vehicle: saline): 94 % of control | T/C (endpoint: mean survival time, dose: 100.0 mg/kg/injection, schedule: Q01DX009 (ip), vehicle: saline): 94 % of control

Cl/C(=N\Nc1ccccc1)c1ccccc1
T/C (endpoint: mean survival time, dose: 12.5 mg/kg/injection, schedule: Q01DX009 (ip), vehicle: Klucel (hydroxypropylcellulose) (HPC)): 102 % of control | T/C [4]: 98 % of control | T/C [5]: 88 % of control

N#CC1(C#N)OC(C#N)(C#N)C2C1C=CC1C2C1(C#N)C#N (stereo not given)
T/C (endpoint: mean survival time, dose: 6.25 mg/kg/injection, schedule: Q01DX001 (ip), vehicle: saline with Tween-80): 108 % of control | T/C (endpoint: mean survival time, dose: 12.5 mg/kg/injection, schedule: Q01DX001 (ip), vehicle: saline with Tween-80): 97 % of control | T/C (endpoint: mean survival time, dose: 25.0 mg/kg/injection, schedule: Q01DX001 (ip), vehicle: saline with Tween-80): 97 % of control

CCC1c2cc(O)c(OC)cc2CCN1C (stereo not given)
T/C (endpoint: mean survival time, dose: 75.0 mg/kg/injection, schedule: Q01DX001 (ip), vehicle: saline): 106 % of control

C[PH+](C)C.C[PH+](C)C.[Au]
T/C (endpoint: median survival time, dose: 0.62 mg/kg/injection, schedule: Q01DX009 (ip), vehicle: saline): 101 % of control | T/C (endpoint: median survival time, dose: 1.25 mg/kg/injection, schedule: Q01DX009 (ip), vehicle: saline): 101 % of control | T/C (endpoint: median survival time, dose: 2.5 mg/kg/injection, schedule: Q01DX009 (ip), vehicle: saline): 101 % of control | T/C (endpoint: median survival time, dose: 5.0 mg/kg/injection, schedule: Q01DX009 (ip), vehicle: saline): 101 % of control | T/C (endpoint: median survival time, dose: 10.0 mg/kg/injection, schedule: Q01DX009 (ip), vehicle: saline): 101 % of control

CN(C)CCCNC(=S)S
T/C (endpoint: mean survival time, dose: 6.0 mg/kg/injection, schedule: Q04DX003 (ip), vehicle: saline): 95 % of control | T/C (endpoint: mean survival time, dose: 12.0 mg/kg/injection, schedule: Q04DX003 (ip), vehicle: saline): 93 % of control | T/C [6]: 106 % of control

O=c1[nH]c(=O)n(C2CC(O)C(CO)O2)cc1Br (stereo not given)
T/C [4]: 103 % of control | T/C [5]: 123 % of control | T/C (endpoint: mean survival time, dose: 100.0 mg/kg/injection, schedule: Q01DX009 (ip), vehicle: Klucel (hydroxypropylcellulose) (HPC)): 120 % of control | T/C (endpoint: mean survival time, dose: 200.0 mg/kg/injection, schedule: Q01DX009 (ip), vehicle: Klucel (hydroxypropylcellulose) (HPC)): 112 % of control | T/C (endpoint: mean survival time, dose: 400.0 mg/kg/injection, schedule: Q01DX009 (ip), vehicle: Klucel (hydroxypropylcellulose) (HPC)): 112 % of control | T/C (endpoint: mean survival time, dose: 800.0 mg/kg/injection, schedule: Q01DX009 (ip), vehicle: Klucel (hydroxypropylcellulose) (HPC)): 115 % of control

O=C1C=CC(=O)N1c1ccc(Cl)cc1 (tested in a mixture with another compound)
T/C [7]: 93 % of control | T/C [8]: 87 % of control | T/C [9]: 98 % of control

CN=Cc1ccc(OC)cc1
T/C (endpoint: mean survival time, dose: 25.0 mg/kg/injection, schedule: Q01DX009 (ip), vehicle: saline with Tween-80): 116 % of control | T/C (endpoint: mean survival time, dose: 50.0 mg/kg/injection, schedule: Q01DX009 (ip), vehicle: saline with Tween-80): 96 % of control | T/C [7]: 102 % of control | T/C [10]: 94 % of control

C=CCCCCn1c2ccccc2c2c(C)c3cnccc3c(C)c21
T/C [7]: 102 % of control | T/C [8]: 102 % of control | T/C [9]: 97 % of control

O=C(NCC1CCCC1)c1ccccc1
T/C (endpoint: mean survival time, dose: 100.0 mg/kg/injection, schedule: Q01DX001 (ip), vehicle: saline): 95 % of control | T/C (endpoint: mean survival time, dose: 200.0 mg/kg/injection, schedule: Q01DX001 (ip), vehicle: saline): 97 % of control | T/C (endpoint: mean survival time, dose: 400.0 mg/kg/injection, schedule: Q01DX001 (ip), vehicle: saline): 89 % of control

CC(=O)OC1(c2ccccc2)OC(=O)c2ccccc21 (stereo not given)
T/C [1]: 97 % of control | T/C [2]: 91 % of control | T/C [3]: 108 % of control

NC(=O)C(CO)NC(=O)OCc1ccccc1 (stereo not given)
T/C (endpoint: mean survival time, dose: 25.0 mg/kg/injection, schedule: Q01DX005 (ip), vehicle: water): 103 % of control | T/C (endpoint: mean survival time, dose: 50.0 mg/kg/injection, schedule: Q01DX005 (ip), vehicle: water): 104 % of control | T/C (endpoint: mean survival time, dose: 100.0 mg/kg/injection, schedule: Q01DX005 (ip), vehicle: water): 95 % of control | T/C (endpoint: mean survival time, dose: 200.0 mg/kg/injection, schedule: Q01DX005 (ip), vehicle: water): 97 % of control | T/C (endpoint: mean survival time, dose: 400.0 mg/kg/injection, schedule: Q01DX005 (ip), vehicle: water): 93 % of control

O=S(=O)(O)SCC1NCCCN1
T/C (endpoint: mean survival time, dose: 12.5 mg/kg/injection, schedule: Q04DX002 (ip), vehicle: saline): 108 % of control | T/C (endpoint: mean survival time, dose: 25.0 mg/kg/injection, schedule: Q04DX002 (ip), vehicle: saline): 101 % of control | T/C (endpoint: mean survival time, dose: 50.0 mg/kg/injection, schedule: Q04DX002 (ip), vehicle: saline): 101 % of control

CC1C=CCC2C(=O)OC(=O)C12 (stereo not given)
T/C [11]: 94 % of control | T/C [12]: 95 % of control | T/C [13]: 101 % of control

CC(=O)OC1COC(NC(=O)N(CCCl)N=O)C(OC(C)=O)C1OC(C)=O (stereo not given)
T/C (endpoint: median survival time, dose: 0.75 mg/kg/injection, schedule: Q01DX009 (ip), vehicle: saline with Tween-80): 115 % of control and 122 % of control and 111 % of control | T/C (endpoint: median survival time, dose: 3.0 mg/kg/injection, schedule: Q01DX009 (ip), vehicle: saline with Tween-80): 150 % of control and 166 % of control | T/C (endpoint: median survival time, dose: 6.0 mg/kg/injection, schedule: Q01DX009 (ip), vehicle: saline with Tween-80): 168 % of control and 191 % of control and 205 % of control | T/C (endpoint: median survival time, dose: 12.0 mg/kg/injection, schedule: Q01DX009 (ip), vehicle: saline with Tween-80): 315 % of control and 322 % of control and 674 % of control

O=c1sc(N=Nc2ccccc2)nn1-c1ccccc1
T/C [11]: 92 % of control | T/C [12]: 91 % of control

COc1ccc(N=C(c2ccccc2)c2ccccc2)cc1
T/C [7]: 95 % of control | T/C [11]: 89 % of control | T/C [8]: 97 % of control | T/C [12]: 101 % of control | T/C [9]: 91 % of control | T/C [13]: 101 % of control

Cc1ccccc1NC(=O)Oc1ccc(Cl)cc1C
T/C [1]: 101 % of control | T/C [2]: 93 % of control | T/C [3]: 97 % of control

COc1cc(/C=N\NC(C)=O)cc(OC)c1OC
T/C [10]: 101 % of control | T/C [14]: 95 % of control

CC(=O)OCC1OC(OC(C)=O)C([NH-])C(OC(C)=O)C1OC(C)=O.CC(=O)OCC1OC(OC(C)=O)C([NH-])C(OC(C)=O)C1OC(C)=O.[Cl][Pt+2][Cl] (stereo not given)
T/C (endpoint: mean survival time, dose: 12.5 mg/kg/injection, schedule: Q04DX003 (ip), vehicle: saline): 98 % of control | T/C [6]: 93 % of control | T/C (endpoint: mean survival time, dose: 50.0 mg/kg/injection, schedule: Q04DX003 (ip), vehicle: saline): 95 % of control | T/C [11]: 90 % of control | T/C [12]: 95 % of control

BrC1C(Br)C2C3C=CC(c4ccccc43)C12 (stereo not given)
T/C [7]: 91 % of control | T/C [10]: 98 % of control | T/C [8]: 94 % of control | T/C [14]: 98 % of control | T/C [9]: 89 % of control | T/C (endpoint: mean survival time, dose: 400.0 mg/kg/injection, schedule: Q04DX003 (ip), vehicle: saline with Tween-80): 96 % of control

CC(C)(C)OC(=O)Cc1ncnc2c1ncn2C1OC(CO)C(O)C1O (stereo not given)
T/C (endpoint: mean survival time, dose: 12.5 mg/kg/injection, schedule: Q01DX005 (ip), vehicle: distilled water + Tween-80): 103 % of control | T/C (endpoint: mean survival time, dose: 25.0 mg/kg/injection, schedule: Q01DX005 (ip), vehicle: distilled water + Tween-80): 102 % of control | T/C (endpoint: mean survival time, dose: 50.0 mg/kg/injection, schedule: Q01DX005 (ip), vehicle: distilled water + Tween-80): 96 % of control | T/C (endpoint: mean survival time, dose: 100.0 mg/kg/injection, schedule: Q01DX005 (ip), vehicle: distilled water + Tween-80): 97 % of control | T/C (endpoint: mean survival time, dose: 200.0 mg/kg/injection, schedule: Q01DX005 (ip), vehicle: distilled water + Tween-80): 102 % of control

Reference: PubChem BioAssay AID256 (DTP/NCI, 2004)
